Data: PMC11205194 (Marine Drugs, 2024)

Test system: SARS-CoV-2 3CLpro
Details: pH 7; for Inhibition of free 3CL protease by synthesized peptides: SD

Compound | Inhibition of the 3CLpro control's enzymatic activity | Inhibition of free 3CL protease by synthesized peptides
COc1cccc2[nH]c(C(=O)N[C@@H](CC(C)C)C(=O)N[C@@H](C[C@@H]3CCNC3=O)C(=O)CO)cc12 [PF-00835231, reference compound] | 94.9% | –
EVLEFFKYIE [PEP 5] | – | 0.01 ± 3.8%
EVLEFFKYLE [PEP 7] | – | 7.6 ± 1.3%
VVGVVVY [PEP 1, Val-Val-Gly-Val-Val-Val-Tyr] | – | 9.3 ± 5.7%
